Source: article PMC12195648 (Pharmaceuticals, 2025)
Where two headings read alike, the source gives them in different places.

Key:
recombinant Abl1 kinase = biological target: T1, recombinant Abl1 kinase (Homo sapiens, UniProt P00519); test: Abl1 kinase inhibition assay (peptide substrate, [γ-33P]ATP); assay type: biochemical
T1 construct: made in house
Description: The inhibitory activity of the synthesized compounds was assessed on an in-house produced recombinant Abl1 kinase. The assay utilized 500 µM peptide […] as a substrate in the presence of 1 µM ATP + [γ-33P]ATP (0.05 µCi per reaction) and the test compound in a final volume of 10 µL of reaction buffer (60 mM HEPES-NaOH, pH 7.5, 3 mM MgCl2, 3 mM MnCl2, 3 μM Na-orthovanadate, 1.2 mM DTT, 2.5 μg/50 μL PEG20.000). The reaction was terminated by adding 5 µL of 3% aq. H3PO4. Aliquots were spotted onto P-81 phosphocellulose (Whatman, Maidstone, UK), washed three times with 0.5% aq. H3PO4, and air-dried. Peptide phosphorylation was quantified through digital autoradiography (FLA-7000; Fujifilm, Tokyo, Japan).

K562 cells = test: Cytotoxicity, resazurin assay, K562; assay type: cell-based, human; details: for GI50: Homo sapiens, K562, 72 h, resazurin, GI50 ± SD; for SI (K562): GI50 HEK-293T / GI50 K562
Description: (§1) The development of the KCL22 subclone B8 (T315I, 100%) has been previously detailed. All cell lines were maintained in a humidified incubator at 37 °C and 5% CO2, following the manufacturer’s instructions, in the appropriate medium supplemented with 10% foetal bovine serum, penicillin (100 IU/mL), streptomycin (100 µg/mL), and glutamine (4 mM).
(§2) Cytotoxicity was assessed utilizing resazurin, an indicator dyes that measures oxidation-reduction reactions in the mitochondria of living cells. Cells were seeded into 96-well plates and treated with the compounds for 72 h (six different doses of each compound, in triplicate).

HEK-293T cells = test: Cytotoxicity, resazurin assay, non-neoplastic HEK-293T; assay type: cell-based; details: Homo sapiens, 72 h, GI50 ± SD
Description: as §1, with “The human cell line KCL22 was sourced from the German Collection of Microorganisms and Cell Cultures, while K562 and HEK-293T cells were obtained from the European Collection of Authenticated Cell Cultures. The” for “The”
Cytotoxicity was assessed utilizing resazurin, an indicator dyes that measures oxidation-reduction reactions in the mitochondria of living cells. Cells were seeded into 96-well plates and treated with the compounds for 72 h (six different doses of each compound, in triplicate). After treatment, a solution of resazurin (Merck, Prague, Czech Republic) was added for 4 h, and the fluorescence of resorufin corresponding to viable cell quantity was measured at 544 nm/590 nm (excitation/emission) using a Fluoroskan Ascent microplate reader (LabSystems, Helsinki, Finland).

KCL22-B8 cells = test: Cytotoxicity, resazurin assay, KCL22-B8 (Bcr-Abl T315I); assay type: cell-based, human; details: for SI (KCL22-B8): GI50 HEK-293T / GI50 KCL22-B8; for GI50: 72 h, resazurin, GI50 ± SD, Bcr-Abl T315I, imatinib-resistant
Description: as §1, §2

KCL22 cells = test: Cytotoxicity, resazurin assay, KCL22; assay type: cell-based, human; details: for SI (KCL22): GI50 HEK-293T / GI50 KCL22; for GI50: Homo sapiens, KCL-22, 72 h, resazurin, GI50 ± SD
Description: as §1, §2

[1] = system: KCL22 cells with Bcr-Abl^T315I; details: cited from earlier work
[2] = experimental pIC50 = −logIC50 on Abl, read-out: pIC50 Exp (converted)
[3] = in vitro inhibition of Abl1 kinase, 1 µM ATP, at least three independent experiments, read-out: IC50 Abl

T1 sequence (P00519 whole entry): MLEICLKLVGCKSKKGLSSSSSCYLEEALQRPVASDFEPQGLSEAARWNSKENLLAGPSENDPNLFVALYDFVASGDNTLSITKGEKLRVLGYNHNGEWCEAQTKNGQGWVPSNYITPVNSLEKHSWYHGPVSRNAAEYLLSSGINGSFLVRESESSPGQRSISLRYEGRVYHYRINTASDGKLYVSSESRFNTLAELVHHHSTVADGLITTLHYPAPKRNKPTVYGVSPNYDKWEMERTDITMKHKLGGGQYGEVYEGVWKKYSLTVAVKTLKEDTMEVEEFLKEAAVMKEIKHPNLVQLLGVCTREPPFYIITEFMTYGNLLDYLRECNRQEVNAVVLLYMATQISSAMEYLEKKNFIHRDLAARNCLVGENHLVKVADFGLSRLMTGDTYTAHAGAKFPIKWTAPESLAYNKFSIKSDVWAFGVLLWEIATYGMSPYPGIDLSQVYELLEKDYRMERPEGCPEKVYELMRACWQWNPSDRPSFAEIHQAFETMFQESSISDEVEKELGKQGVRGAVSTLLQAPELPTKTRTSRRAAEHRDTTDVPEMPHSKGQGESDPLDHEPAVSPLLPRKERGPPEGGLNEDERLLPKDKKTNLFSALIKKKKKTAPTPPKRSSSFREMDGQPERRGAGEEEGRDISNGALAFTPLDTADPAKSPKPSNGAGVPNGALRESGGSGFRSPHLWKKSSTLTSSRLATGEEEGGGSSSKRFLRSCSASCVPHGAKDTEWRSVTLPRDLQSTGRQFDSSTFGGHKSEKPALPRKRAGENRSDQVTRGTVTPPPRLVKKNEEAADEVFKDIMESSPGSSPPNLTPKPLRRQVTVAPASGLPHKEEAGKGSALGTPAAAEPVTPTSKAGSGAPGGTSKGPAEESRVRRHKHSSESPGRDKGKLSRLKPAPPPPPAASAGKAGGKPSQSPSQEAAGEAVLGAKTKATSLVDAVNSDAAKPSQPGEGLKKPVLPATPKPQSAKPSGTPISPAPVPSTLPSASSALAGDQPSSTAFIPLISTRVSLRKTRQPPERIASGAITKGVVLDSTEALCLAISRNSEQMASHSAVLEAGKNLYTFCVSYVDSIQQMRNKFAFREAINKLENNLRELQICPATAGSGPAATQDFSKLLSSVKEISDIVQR

SMILES | IC50 (recombinant Abl1 kinase; [2]) [µM] | IC50 (recombinant Abl1 kinase; [3]) [µM] | GI50 (K562 cells) [µM] | fold more potent than 7b (K562 cells; K562 cells, GI50 ratio) [fold] | GI50 (HEK-293T cells) [µM] | SI (KCL22-B8) (KCL22-B8 cells) | GI50 (KCL22-B8 cells; Homo sapiens) [µM] | SI (KCL22) (KCL22 cells) | GI50 (KCL22 cells) [µM] | fold more potent than 7b (KCL22 cells; KCL22 cells, GI50 ratio) | SI (K562) (K562 cells) | GI50 (KCL22-B8 cells) [µM] | GI50 [1] [µM]
N#Cc1cccc(Nc2nc(Nc3ccc(N4CCN(CCO)CC4)nc3)nc3c2ncn3CC2CC2)c1 [Compound 7c, 3-((9-(Cyclopropylmethyl)-2-((6-(4-(2-hydroxyethyl)piperazin-1-yl)pyridin-3-yl)amino)-9H-purin-6-yl)amino)benzonitrile] | 0.19 | 0.19 ± 0.05 | 0.3 ± 0.11 | 13 | > 25 | 0.8 | > 25 | 16 | 1.54 ± 1.02 | approximately 8.5 fold | – | – | –
COC(=O)c1ccc(Nc2nc(Nc3ccc(N4CCN(CCO)CC4)cc3)nc3c2ncn3CC2CC2)cc1Cl [Compound 7e, Methyl 2-chloro-4-((9-(cyclopropylmethyl)-2-((4-(4-(2-hydroxyethyl)piperazin-1-yl)phenyl)amino)-9H-purin-6-yl)amino)benzoate] | 0.42 | 0.42 ± 0.08 | 2.19 ± 1.42 | – | 5.98 ± 2.78 | 0.4 | 13.8 | 1.7 | 3.88 ± 1.46 | – | 2.7 | 15.4 ± 0.98 | –
N#Cc1cccc(Nc2nc(Nc3ccc(N4CCN(CCO)CC4)cc3)nc3c2ncn3CC2CC2)c1 [Compound 7b, 3-((9-(Cyclopropylmethyl)-2-((4-(4-(2-hydroxyethyl)piperazin-1-yl)phenyl)amino)-9H-purin-6-yl)amino)benzonitrile] | 0.46 | 0.46 ± 0.15 | 4.04 ± 1.87 | – | 14.8 ± 0.91 | 0.8 | 17.9 ± 2.71 | 1.1 | 13.1 ± 2.21 | – | 3.6 | – | –
COc1cc(Nc2nc(Nc3ccc(N4CCN(CCO)CC4)cc3)nc3c2ncn3CC2CC2)ccc1Br [Compound 7g, 2-(4-(4-((6-((4-Bromo-3-methoxyphenyl)amino)-9-(cyclopropylmethyl)-9H-purin-2-yl)amino)phenyl)piperazin-1-yl)ethan-1-ol] | 0.791 | 0.79 ± 0.14 | 2.34 ± 1.04 | – | 4.32 ± 1.42 | 0.3 | 15.4 | 0.8 | 5.51 ± 1.08 | – | 1.8 | 16.6 ± 0.92 | –
OCCN1CCN(c2ccc(Nc3nc(Nc4ccc(Cl)c(C(F)(F)F)c4)c4ncn(CC5CC5)c4n3)cc2)CC1 [Compound 7f, 2-(4-(4-((6-((4-Chloro-3-(trifluoromethyl)phenyl)amino)-9-(cyclopropylmethyl)-9H-purin-2-yl)amino)phenyl)piperazin-1-yl)ethan-1-ol] | 1.26 | 1.26 ± 0.65 | 3.56 ± 0.52 | – | 3.96 ± 0.57 | 0.3 | 15.4 | 0.3 | 12.4 ± 4.28 | – | 1.1 | 13.8 ± 3.05 | –
OCCOCCN1CCN(c2ccc(Nc3nc(Nc4cccc(F)c4)c4ncn(CC5CC5)c4n3)cc2)CC1 [Compound 7a, 2-(2-(4-(4-((9-(Cyclopropylmethyl)-6-((3-fluorophenyl)amino)-9H-purin-2-yl)amino)phenyl)piperazin-1-yl)ethoxy)ethan-1-ol] | 0.13 | 0.13 ± 0.03 | 1.37 ± 0.61 | – | 6.85 ± 0.66 | 0.4 | 17.4 ± 2.02 | 2.9 | 2.38 ± 1.12 | – | 5.0 | – | –
OCCN1CCN(c2ccc(Nc3nc(Nc4cccc(Br)c4)c4ncn(CC5CC5)c4n3)cc2)CC1 [Compound 7d, 2-(4-(4-((6-((3-Bromophenyl)amino)-9-(cyclopropylmethyl)-9H-purin-2-yl)amino)phenyl)piperazin-1-yl)ethan-1-ol] | 0.21 | 0.21 ± 0.01 | 1.44 ± 0.91 | – | 7.87 ± 1.53 | 0.4 | 20.1 ± 2.35 | 2.7 | 2.96 ± 0.97 | – | 5.5 | – | –
Cc1cn(-c2cc(NC(=O)c3ccc(C)c(Nc4nccc(-c5cccnc5)n4)c3)cc(C(F)(F)F)c2)cn1 [nilotinib] | – | – | – | – | – | – | – | – | – | – | – | – | > 20
